These results are taken from the NIST ThermoML archive (doi:10.1021/je8001688).

The structures appear in SMILES notation. Numbers after ± are expanded uncertainties.

For the data set the following is noted: 298.15 K; 101.33 kPa; Liquid; Vibrating tube method.
Usually mass density stands for mass per unit of volume. With `OCC(F)(F)F` [2,2,2-trifluoroethanol], the mass density is 1382.4 ± 0.6 kg/m3.

With `C1CCCCC1` [cyclohexane], the mass density amounted to 774 ± 0.5 kg/m3.

Regarding `CCCCCCC` [heptane], the mass density was 680 ± 0.5 kg/m3.

As to `CO` [methanol], the mass density turned out to be 787 ± 0.5 kg/m3.

For the compound `CC(C)O` [propan-2-ol], the mass density came to 781.4 ± 0.5 kg/m3.
